PubChem BioAssay AID2060508 (Molecular Pharmacology Branch, DTP, NCI, 2025)

Test system: 454973-116-R2-J3-PDC spheroids, viability, % test/control
Assay: Anticancer human tumor 454973-116-R2-J3-PDC patient-derived pancreatic carcinoma cell line growth inhibition [GQUAD]
Details: spheroids with HUVEC and MSC; for IC50: curve of first compound; for viability, T/C: stronger effect = lower value
Excerpt: DNA G-quadruplex Stabilizer Agents in Combinations in Complex Spheroids
A high-throughput screen of multi-cell type tumor spheroids was designed to identify active combinations of DNA G-quadruplex stabilizer agents and targeted small molecules. Complex spheroids include a stromal component modeled by human endothelial cells (HUVEC) and fibroblasts modeled by human mesenchymal stem cells (MSCs). The concentration ranges selected for each drug and investigational agent were based upon clinically achievable concentrations if the clinical Cmax of the agent was known.
Compounds. The drugs and investigational agents: pidnarulex (CX-5461; NSC782164), APTO-253 (NSC789042), BRACO-19 (NSC847499), peposertib (NSC802822), ceralasertib (NSC780249), elimusertib (NSC800525), camonsertib (NSC841442), AZD-1390 (NSC803789), olaparib (NSC753686), talazoparib (NSC767125), ART-558 (NSC835418), sotorasib (NSC818433), MRTX-1133 (NSC836407), SN-38 (NSC673596), topotecan (NSC609699), etoposide (NSC141540), doxorubicin (NSC123127), gemcitabine (NSC613327), 5-fluorouracil (NSC19893), paclitaxel (NSC125973), vemurafenib (NSC761431), panobinostat (NSC761190), R-306465 (JNJ-16241199; NSC773264), adavosertib (NSC754352), TP-3654 (NSC805149), carboplatin (NSC241240), KSQ-4279 (NSC840948), and staurosporine (NSC755774) were obtained from the National Cancer Institute (NCI) Developmental Therapeutics Program Chemical Repository (34). The FDA-approved anticancer drug set is available from the NCI Developmental Therapeutics Program. […] The stock solutions were prepared in dimethyl sulfoxide (DMSO, Sigma-Aldrich, St. Louis, MO, cat. D2650) at 800-fold the tested concentration and stored at -70 degrees C prior to their use. All drugs and investigational agents were tested over a range starting from a high concentration at or near the clinical Cmax and decreasing in half-log increments. If the clinical Cmax for an agent had not been determined, the highest concentration tested was 10 microM.
2.3 Cell Culture. All cells were maintained in an incubator at 37 degrees C and 5% CO2 with 95% humidity. The PDC lines were cultured according to standard operating procedures established by the NCI PDMR. All PDCs were thawed and cultured in Matrigel-coated flasks prepared with a working solution of 1X Ham's F-12 nutrient mix, without supplementation (Invitrogen, cat. 11765054), 100 U/mL penicillin-streptomycin (Invitrogen, cat. 15140122), and 2.5% Matrigel (Corning Inc., cat. 354248) for the first three passages. The 857933-349-R-J2-PDC line was cultured in 6C/Colon 1B media, which includes advanced DMEM/F-12 (Thermo Fisher Scientific, cat. 12634028), 10 mM HEPES (Thermo Fisher Scientific, cat. 15630080), 1X GlutaMAX supplement (Thermo Fisher Scientific, cat. 35050061), 0.1 mg/mL primocin (InvivoGen, cat. ant-pm-2), 10% defined fetal bovine serum, heat inactivated (HyClone Laboratories Inc., cat. SH30070.03HI), 50% L-WRN conditioned media (ATCC, cat. CRL-3276), 1.25 mM N-Acetyl-L-cysteine (Sigma-Aldrich, cat. A9165), 10 mM nicotinamide (Sigma-Aldrich, cat. N0636), 1X B-27 supplement (Thermo Fisher Scientific, cat. 17504044), 1X N-2 supplement (Thermo Fisher Scientific, cat. 17502048), 10 microM Y-27632 dihydrochloride (Tocris Bioscience, cat. 1254), and 50 ng/mL human EGF recombinant protein (Thermo Fisher Scientific, cat. PHG0311). The 485176-168-R4-J1-PDC line was cultured in Panc media, which includes all 6C/Colon 1B media components plus 100 ng/mL human FGF-10 (Thermo Fisher Scientific, cat. 100-26), 500 nM SB-431542 (Selleckchem, cat. S1067), and gastrin (Tocris, cat. 3006).
[…]

[1] = second compound 0.0316 µM, first compound 0.0316 µM
[2] = second compound 0.0316 µM, first compound 0.1 µM
[3] = second compound 0.0316 µM, first compound 0.316 µM
[4] = second compound 0.0316 µM, first compound 1 µM
[5] = second compound 0.0316 µM, first compound 3.16 µM
[6] = second compound 0.0316 µM, first compound 10 µM
[7] = second compound 0.1 µM, first compound 0.0316 µM
[8] = second compound 0.1 µM, first compound 0.1 µM
[9] = second compound 0.1 µM, first compound 0.316 µM
[10] = second compound 0.1 µM, first compound 1 µM
[11] = second compound 0.1 µM, first compound 3.16 µM
[12] = second compound 0.1 µM, first compound 10 µM
[13] = second compound 0.316 µM, first compound 0.0316 µM
[14] = second compound 0.316 µM, first compound 0.1 µM
[15] = second compound 0.316 µM, first compound 0.316 µM
[16] = second compound 0.316 µM, first compound 1 µM
[17] = second compound 0.316 µM, first compound 3.16 µM
[18] = second compound 0.316 µM, first compound 10 µM
[19] = second compound 1 µM, first compound 0.0316 µM
[20] = second compound 1 µM, first compound 0.1 µM
[21] = second compound 1 µM, first compound 0.316 µM
[22] = second compound 1 µM, first compound 1 µM
[23] = second compound 1 µM, first compound 3.16 µM
[24] = second compound 1 µM, first compound 10 µM
[25] = second compound 3.16 µM, first compound 0.0316 µM
[26] = second compound 3.16 µM, first compound 0.1 µM
[27] = second compound 3.16 µM, first compound 0.316 µM
[28] = second compound 3.16 µM, first compound 1 µM
[29] = second compound 3.16 µM, first compound 3.16 µM
[30] = second compound 3.16 µM, first compound 10 µM
[31] = second compound 10 µM, first compound 0.0316 µM
[32] = second compound 10 µM, first compound 0.1 µM
[33] = second compound 10 µM, first compound 0.316 µM
[34] = second compound 10 µM, first compound 1 µM
[35] = second compound 10 µM, first compound 3.16 µM
[36] = second compound 10 µM, first compound 10 µM
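Note: spheroids exposed to compounds for seven days.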

## C=CC(=O)N1CCN(c2nc(=O)n(-c3c(C)ccnc3C(C)C)c3nc(-c4c(O)cccc4F)c(F)cc23)C(C)C1 (centres undefined) + CN(C)c1ccc(Nc2c3ccc(NC(=O)CCN4CCCC4)cc3nc3cc(NC(=O)CCN4CCCC4)ccc23)cc1
Second compound 0.0316 µM
  IC50: > 10 µM
Second compound 0.1 µM
  IC50: > 10 µM
Second compound 0.316 µM
  IC50: > 10 µM
Second compound 1 µM
  IC50: > 10 µM
Second compound 3.16 µM
  IC50: > 10 µM
Second compound 10 µM
  IC50: > 10 µM
[1]
  viability, T/C: 112%
[2]
  viability, T/C: 103%
[3]
  viability, T/C: 110%
[4]
  viability, T/C: 112%
[5]
  viability, T/C: 102%
[6]
  viability, T/C: 115%
[7]
  viability, T/C: 103%
[8]
  viability, T/C: 98.9%
[9]
  viability, T/C: 107%
[10]
  viability, T/C: 107%
[11]
  viability, T/C: 102%
[12]
  viability, T/C: 112%
[13]
  viability, T/C: 107%
[14]
  viability, T/C: 103%
[15]
  viability, T/C: 103%
[16]
  viability, T/C: 110%
[17]
  viability, T/C: 99.5%
[18]
  viability, T/C: 111%
[19]
  viability, T/C: 97.3%
[20]
  viability, T/C: 91.8%
[21]
  viability, T/C: 104%
[22]
  viability, T/C: 86.7%
[23]
  viability, T/C: 102%
[24]
  viability, T/C: 100%
[25]
  viability, T/C: 97.7%
[26]
  viability, T/C: 90.7%
[27]
  viability, T/C: 93.8%
[28]
  viability, T/C: 77.7%
[29]
  viability, T/C: 103%
[30]
  viability, T/C: 105%
[31]
  viability, T/C: 83.4%
[32]
  viability, T/C: 77.9%
[33]
  viability, T/C: 82.4%
[34]
  viability, T/C: 68.5%
[35]
  viability, T/C: 79%
[36]
  viability, T/C: 77.5%

## Cc1cccc(N(C)C(=O)C2C(O)CCN2c2nc(C)cc(C(F)(F)F)c2C#N)c1 (centres undefined) + CN(C)c1ccc(Nc2c3ccc(NC(=O)CCN4CCCC4)cc3nc3cc(NC(=O)CCN4CCCC4)ccc23)cc1
Second compound 0.0316 µM
  IC50: > 10 µM
Second compound 0.1 µM
  IC50: > 10 µM
Second compound 0.316 µM
  IC50: > 10 µM
Second compound 1 µM
  IC50: > 10 µM
Second compound 3.16 µM
  IC50: > 10 µM
Second compound 10 µM
  IC50: > 10 µM
[1]
  viability, T/C: 106%
[2]
  viability, T/C: 102%
[3]
  viability, T/C: 103%
[4]
  viability, T/C: 98.1%
[5]
  viability, T/C: 109%
[6]
  viability, T/C: 100%
[7]
  viability, T/C: 102%
[8]
  viability, T/C: 106%
[9]
  viability, T/C: 98.6%
[10]
  viability, T/C: 98%
[11]
  viability, T/C: 92.6%
[12]
  viability, T/C: 105%
[13]
  viability, T/C: 102%
[14]
  viability, T/C: 92.9%
[15]
  viability, T/C: 97.7%
[16]
  viability, T/C: 103%
[17]
  viability, T/C: 93.9%
[18]
  viability, T/C: 93.8%
[19]
  viability, T/C: 93.4%
[20]
  viability, T/C: 99.8%
[21]
  viability, T/C: 92%
[22]
  viability, T/C: 77.8%
[23]
  viability, T/C: 92%
[24]
  viability, T/C: 100%
[25]
  viability, T/C: 92.5%
[26]
  viability, T/C: 90%
[27]
  viability, T/C: 85%
[28]
  viability, T/C: 70.4%
[29]
  viability, T/C: 86.1%
[30]
  viability, T/C: 84.4%
[31]
  viability, T/C: 74%
[32]
  viability, T/C: 74.7%
[33]
  viability, T/C: 60.5%
[34]
  viability, T/C: 72.4%
[35]
  viability, T/C: 74.5%
[36]
  viability, T/C: 65.1%
